Source: the NIST ThermoML archive (doi:10.1021/je100715x)

Columns and labels:
[1] = refractive index (Na D-line) (dimensionless); xn = mol fraction of the nth substance listed; conditions: 101 kPa, Liquid, Standard Abbe refractometry
[2] = xn = mol fraction of the nth substance listed; conditions: 101 kPa, Liquid; for viscosity: Capillary tube (Ostwald / Ubbelohde) method; for mass density: Vibrating tube method

CCOC(=O)C(=O)OCC [diethyl ethanedioate] + CC(=O)c1ccccc1
Conditions	mass density, 303.15 K [kg/m3]	mass density, 308.15 K [kg/m3]	mass density, 313.15 K [kg/m3]	refractive index, 303.15 K	refractive index, 308.15 K	refractive index, 313.15 K	viscosity, 303.15 K [mPa·s]	viscosity, 308.15 K [mPa·s]	viscosity, 313.15 K [mPa·s]
[1], x1 = 0.0875	–	–	–	1.5171	1.5151	1.5133	–	–	–
[1], x1 = 0.1478	–	–	–	1.5087	1.5068	1.5053	–	–	–
[1], x1 = 0.2538	–	–	–	1.4945	1.4928	1.4912	–	–	–
[1], x1 = 0.3443	–	–	–	1.4826	1.4811	1.4796	–	–	–
[1], x1 = 0.4591	–	–	–	1.4685	1.4671	1.4656	–	–	–
[1], x1 = 0.5501	–	–	–	1.4574	1.456	1.4544	–	–	–
[1], x1 = 0.6601	–	–	–	1.4439	1.4424	1.4411	–	–	–
[1], x1 = 0.7601	–	–	–	1.4325	1.4309	1.4293	–	–	–
[1], x1 = 0.8846	–	–	–	1.4187	1.4167	1.4154	–	–	–
[1], x1 = 0.95	–	–	–	1.4117	1.4095	1.4079	–	–	–
[2], x1 = 0.0875	1024.1	1021	1017.4	–	–	–	1.557	1.405	1.308
[2], x1 = 0.1478	1026.7	1023.6	1019.9	–	–	–	1.578	1.418	1.317
[2], x1 = 0.2538	1031.2	1027.9	1024	–	–	–	1.61	1.439	1.333
[2], x1 = 0.3443	1034.9	1031.5	1027.5	–	–	–	1.628	1.454	1.344
[2], x1 = 0.4591	1039.9	1036.2	1032	–	–	–	1.645	1.467	1.355
[2], x1 = 0.5501	1044	1040.1	1035.7	–	–	–	1.655	1.477	1.362
[2], x1 = 0.6601	1049.3	1045.2	1040.2	–	–	–	1.657	1.485	1.366
[2], x1 = 0.7601	1054.3	1049.8	1044.5	–	–	–	1.654	1.487	1.37
[2], x1 = 0.8846	1060.6	1055.6	1049.9	–	–	–	1.648	1.489	1.373
[2], x1 = 0.95	1063.8	1058.5	1052.5	–	–	–	1.635	1.49	1.375
